“Also recorded” adds a separate entry of the source.
Assays:
[1] = system: evoked neuronal activity flow from the dentate gyrus to area CA1; assay: Voltage-sensitive dye imaging (VSDI) in VH slices; design: species or system mouse; conditions: bath application of NPS 1 μM
Description: According to Maggio and Segal (2007) and Fanselow and Dong (2010), VSDI experiments were conducted in the VH. Horizontal brain slices (350 μm-thick) were prepared as described in Refojo et al., 2011 and/or von Wolff et al., 2011). Only the first two slices from the ventral surface of the brain in which the CA1 region was clearly visible were used for the measurements. Staining of slices with the voltage-sensitive dye Di-4-ANEPPS and VSDI were carried out at room temperature (23-25° C.). For staining, slices were kept for 15 min in carbogenated (95% O2/5% CO2) ACSF containing Di-4-ANEPPS (7.5 μg/mL; <0.1% DMSO). The ACSF (pH 7.4) consisted of (in mM): 125 NaCl, 2.5 KCl, 25 NaHCO3, 1.25 NaH2PO4, 2 CaCl2, 1 MgCl2, and 25 glucose. Afterwards, slices were stored for at least 30 min in pure carbogenated ACSF. In the recording chamber, slices were continuously superfused with carbogenated ACSF (3 mL/min flow rate). VSDI and data analysis were performed using the MiCAM02 hard- and software package (BrainVision, Tokyo, Japan). The tandem-lens fluorescence microscope was equipped with the MiCAM02-HR camera and the 2× and 1× lens at the objective and condensing side, respectively. Acquisition settings were: 88×60 pixels frame size, 36.4×40.0 μm pixel size, and 2.2 ms sampling time. To reduce noise, four acquisitions subsequently recorded at intervals of 5 s were averaged. Neuronal activity was evoked by square pulse electrical stimuli (200 μs, 15-20 V) delivered to the dentate gyrus granule cell layer via a custom-made monopolar tungsten electrode (Teflon-insulated to the tip of 75 μm diameter). From recorded signals, the fractional change in fluorescence (ΔF/F) was calculated. For all quantifications, ΔF/F values were spatially and temporally smoothed using a 3×3×3 average filter. VSDI signals presented in images were smoothed with a 5×5×3 average filter. Pixelation of images was reduced by the interpolation function of the MiCAM02 software. […]

[2] = system: CA3-CA1 synapses of the VH; assay: Field potential recordings, bath application of NPS to VH slices; design: species or system mouse; conditions: bath application of NPS 1 μM, VH slices from C57BL/6N mice
Description: Brains were dissected and placed in ice-cold carbogenated ACSF. 350 μm horizontal slices containing the VH were prepared using a vibroslicer. Afterwards, the slices were incubated for 30 min at 34° C. and subsequently stored at room temperature. For experiments, slices were placed in a submerged recording chamber and continuously superfused with carbogenated ACSF at a flow rate of 3 mL/min. Square pulse electrical stimuli (50 μs pulse width) were delivered via a bipolar tungsten electrode (insulated to the tip, 50 μm pole diameter) that was positioned within the stratum radiatum of the CA1 region. All recordings were performed at room temperature, low-pass filtered at 1 kHz, and digitised at 5 kHz. Evoked field excitatory postsynaptic potentials (fEPSPs) were recorded using glass micro-electrodes (1 MΩ open-tip resistance), filled with ACSF and also positioned within the CA1 stratum radiatum. Stimulus intensities were adjusted in a manner to produce a fEPSP of ˜50% of that amplitude at which a population spike becomes clearly observable. Paired-pulse facilitation was measured at interstimulus intervals of 25, 50, 100, 200, and 400 ms and the paired-pulse ratio was calculated as fEPSP2 amplitude/fEPSP1 amplitude.

[3] = system: C57BL/6N mice; assay: Elevated plus maze after bilateral NPS injection into CA1 of the VH; assay type: in vivo, mouse; conditions: 0.1 nmol NPS each side into CA1 of VH, 30 min
Description: (§1) Animals were fixed in a stereotactic frame and maintained under isoflurane anesthesia (Forene® 100%, V/V; induction: 2.5%; maintenance: 1.5%; in O2; flow rate: 1 L/min). The mice received acute analgesic treatment with Metacam s.c. during surgery (0.5 mg/kg; in NaCl). 23 gauge stainless-steel guide cannulas were implanted in the CA1 region of the VH at the following coordinates: 3.1 mm posterior, ±3 mm lateral from bregma, and 2 mm ventral from the skull surface (Franklin and Paxinos, 2007). The guide cannulas were fixed with two screws and a two-component adhesive. For behavioural experiments, animals were implanted bilaterally for later bilateral injection, whereas for Cy3-NPS injections, implantation was performed unilaterally. The animals were allowed to recover for at least 6 days before starting the behavioural experiments. Substance infusions were carried out manually, on mice anesthetised by brief inhalation of isoflurane, using a 30 gauge injection cannula connected to a Tygon tube and a 10 μL Hamilton syringe. After infusion, the injection cannula was kept in place for additional 30 s to prevent substance outflow.
Mice were injected bilaterally either with 0.1 nmol NPS in 0.5 μL ACSF for each side or with 0.5 μL of ACSF for each side. 30 min after injection, three behavioural assays [open field, dark-light test, and elevated plus maze (EPM)] were performed sequentially in the order mentioned. Each test lasted 5 min, with a 5 min break in between, as described in Kromer et al., 2005 and Bunck et al., 2009. Animal behaviour was videotaped and relevant parameters were analysed using the tracking software ANY-maze version 4.30 (Stoelting, Wood Dale, Ill., USA). Mice were sacrificed 24 h after completion of behavioural assays and the locations of the guide cannulas were checked in histological cryosections of 40 μm counterstained with DAPI. Mice with deviating injection sites were excluded from further analysis.

[4] = system: C57BL/6N mice; assay: Open field after bilateral NPS injection into CA1 of the VH; assay type: in vivo, mouse; conditions: 0.1 nmol NPS each side into CA1 of VH, 30 min
Description: as §1, with “After infusion, the injection cannula was kept in place for additional 30 s to prevent substance outflow.” left out
(§2) Mice were injected bilaterally either with 0.1 nmol NPS in 0.5 μL ACSF for each side or with 0.5 μL of ACSF for each side. […] Animal behaviour was videotaped and relevant parameters were analysed using the tracking software ANY-maze version 4.30 (Stoelting, Wood Dale, Ill., USA). […]

[5] = system: C57BL/6N mice; assay: Dark-light test after bilateral NPS injection into CA1 of the VH; assay type: in vivo, mouse; conditions: 0.1 nmol NPS each side into CA1 of VH, 30 min
Description: as §1, with “After infusion, the injection cannula was kept in place for additional 30 s to prevent substance outflow.” left out
as §2

neuropeptide S (SFRNGVGSGVKKTSFRRAKQ; Neuropeptide S; UniProt P0C0P7 70-89, looked up) [NPS, peptide agonist of neuropeptide S receptor (NPSR); native NPS, rat, from Bachem]
activity flow from the dentate gyrus to the CA1 subfield [1]: rapidly weakened
FDS peak amplitudes ([1]; dentate hilus, CA3 region, area CA1): reduced the amplitude of FDSs in the dentate hilus, the CA3 region, and area CA1; also recorded: decreased FDS peak amplitudes
long-term potentiation (LTP) [2]: decreases
paired-pulse facilitation [2]: decreases
anxiety-related behaviour on the EPM [3]: significant anxiolytic effect; also recorded: decreased anxiety-related behaviour
increase in the percentage of time spent on the open arms compared to vehicle-treated mice [3]: 28%
locomotion on the EPM [3]: did not affect locomotion; also recorded: without affecting locomotion
distance traveled / locomotion in the open field [4]: did not affect locomotion; also recorded: not changed
anxiety- and locomotion-related behaviour in the dark-light test [5]: did not affect locomotion; also recorded: not altered

— patent US20160279204A1, “PEPTIDES AND PHARMACEUTICAL COMPOSITIONS FOR USE IN THE TREATMENT BY NASAL ADMINISTRATION OF PATIENTS SUFFERING FROM ANXIETY AND SLEEP DISORDERS” (MAX-PLANCK-GESELLSCHAFT ZUR FÖRDERUNG DER WISSENSCHAFT E.V., priority 2011, published 2016)
